Key:
Assay type in all cases: in vivo
Details in all cases: active ingredient amount 31 g/ha, 14th day after application
[1] = tested on: barnyardgrass (Echinochloa crus-qalli L.); assay: Test Example 1: foliar treatment, growth inhibition rate on 14th day
Outline: (§1)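 Using a small sprayer, formulated compound in water (0.1 vol % surfactant, 1,000 L/ha) was applied to seedlings grown from seed in upland soil. Fourteen days on, growth state was observed and expressed as percent inhibition from 0 to 100.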

corn (Zea mays L.) [2] = assay: as above
Outline: as §1

[3] = tested on: crabgrass (Digitaria sanquinalis L.); assay: as above
Outline: as §1

[4] = tested on: green foxtail (Setaria viridis L.); assay: as above
Outline: (§2)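 Sow seeds in upland soil pots; at target leaf stage (wild oat 0.4–1.2, rice 0.2–2.7, foxtail 0.5–3.2, soybean primary leaf) spray formulated compound in water, 1,000 L/ha, 0.1 vol % surfactant. Score inhibition visually at day 14, 0–100%.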

[5] = tested on: italian ryegrass (Lolium multiflorum Lam.); assay: as above
Outline: as §1

[6] = tested on: redroot pigweed (Amaranthus retroflexus L.); assay: as above
Outline: as §1

rice (Oryza sativa L.) [7] = assay: as above
Outline: as §2

[8] = tested on: soybean (Glycine max Merr.); assay: as above
Outline: as §2

[9] = tested on: wheat (Triticum aestivum L.); assay: as above
Outline: as §1

[10] = tested on: wild oat (Avena fatua L.); assay: as above
Outline: as §2

[11] = tested on: barnyardgrass (Echinochloa crus-qalli L.); assay: Test Example 2: soil application on the day after sowing, growth inhibition rate on 14th day
Outline: (§3)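 Field soil in 1/300,000 ha pots was sown, and the next day compounds formulated as wettable powders or emulsifiable concentrates were diluted in water (1,000 L/ha) and soil-sprayed at the prescribed active ingredient rates. Growth inhibition was scored visually 14 days later, 0 (untreated) to 100 (complete kill).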

corn (Zea mays L.) [12] = assay: as above
Outline: as §3

[13] = tested on: crabgrass (Digitaris sanquinalis L.); assay: as above
Outline: as §3

[14] = tested on: green foxtail (Setaria viridis L.); assay: as above
Outline: as §3

[15] = tested on: prickly sida (Sida spinosa L.); assay: as above
Outline: as §3

[16] = tested on: redroot pigweed (Amaranthus retroflexus L.); assay: as above
Outline: as §3

rice (Oryza sativa L.) [17] = assay: as above
Outline: as §3

[18] = tested on: soybean (Glycine max Merr.); assay: as above
Outline: as §3

[19] = tested on: velvetleaf (Abutilon theophrasti MEDIC.); assay: as above
Outline: as §3

[20] = tested on: wheat (Triticum aestivum L.); assay: as above
Outline: as §3

Row | SMILES | Growth inhibition rate (%) Barnyardgrass [1] | Growth inhibition rate (%) Corn (corn (Zea mays L.) [2]) | Growth inhibition rate (%) Crabgrass [3] | Growth inhibition rate (%) Green foxtail [4] | Growth inhibition rate (%) Italian ryegrass [5] | Growth inhibition rate (%) Redroot pigweed [6] | Growth inhibition rate (%) Rice (rice (Oryza sativa L.) [7]) | Growth inhibition rate (%) Soybean [8] | Growth inhibition rate (%) Wheat [9] | Growth inhibition rate (%) Wild oat [10] | Growth inhibition rate (%) Barnyardgrass [11] | Growth inhibition rate (%) Corn (corn (Zea mays L.) [12]) | Growth inhibition rate (%) Crabgrass [13] | Growth inhibition rate (%) Green foxtail [14] | Growth inhibition rate (%) Prickly sida [15] | Growth inhibition rate (%) Redroot pigweed [16] | Growth inhibition rate (%) Rice (rice (Oryza sativa L.) [17]) | Growth inhibition rate (%) Soybean [18] | Growth inhibition rate (%) Velvetleaf [19] | Growth inhibition rate (%) Wheat [20]
1 | CCn1nc(C)c(O)c(-c2cc(Oc3nc4ccc(Cl)cc4o3)ccc2C)c1=O [Compound 2-176] | 100% | 80% | 99% | 100% | 85% | 0% | 10% | 0% | 0% | 25% | 100% | 0% | 98% | 99% | 0% | 0% | 60% | 0% | 0% | 0%
2 | Cc1nn(C)c(=O)c(-c2cc(Oc3ncc(C(F)(F)F)cc3Cl)ccc2C2CC2)c1O [1-149] | 100% | 50% | 98% | 100% | 83% | 10% | 70% | 0% | 20% | 85% | 98% | 0% | 99% | 100% | 0% | 0% | 0% | 0% | 0% | 0%
3 | Cc1ccc(Oc2ccc(C(F)(F)F)cn2)cc1-c1c(O)c(C)nn(C)c1=O [Compound 2-3] | 85% | 10% | 15% | 85% | 20% | 0% | 10% | 10% | 30% | 35% | 50% | 0% | 80% | 98% | 0% | 0% | 20% | 0% | 0% | 0%
4 | CCc1ccc(Sc2ncc(C(F)(F)F)cc2Cl)cc1-c1c(O)c(C)nn(C)c1=O [1-4] | 99% | 93% | 95% | 100% | 95% | 10% | 20% | 35% | 10% | 99% | 100% | 0% | 99% | 98% | 0% | 0% | 40% | 0% | 0% | 0%

— patent US10870638B2, “Pyridazinone compound or its salt, and herbicide containing it” (ISHIHARA SANGYO KAISHA, LTD., priority 2016, dated 2020)
